Source: patent US9365541B2, “Compounds for use in the treatment of parasitic diseases” (IRBM—SCIENCE PARK S.P.A., priority 2012, dated 2016)

Experiments:
human HDAC1 = target: T1, human HDAC1 (Homo sapiens, UniProt Q13547); assay: Homo sapiens HDAC1 inhibition assay (Fluor-de-Lys, enzymatic); format: biochemical; conditions: human HDAC enzymatic assay; read-out: hHDAC IC50
T1 construct: made in house; host or cells: HeLa (ATCC CCL-2), mammalian cells
In short: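 Fluorogenic deacetylation read-out: trypsin developer, supplemented with 2 μM final TSA as stop, releases fluorophore from deacetylated substrate.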

[1] = test system: Plasmodium falciparum 3D7; assay: P. falciparum growth inhibition assay (Pf-LDH); format: cell-based; conditions: Plasmodium falciparum, Erythrocyte; P. falciparum 3D7 infected erythrocytes, 72 h incubation, PfLDH readout
In short: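 Compounds were tested against 72 h cultures of the 3D7 strain (0.25% parasitemia, 2% hematocrit, 37° C, low-oxygen gas). Parasite growth was quantified as lactate dehydrogenase activity via NBT reduction, absorbance 650 nm, after freezing and thawing.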

T1 sequence (Q13547 whole entry): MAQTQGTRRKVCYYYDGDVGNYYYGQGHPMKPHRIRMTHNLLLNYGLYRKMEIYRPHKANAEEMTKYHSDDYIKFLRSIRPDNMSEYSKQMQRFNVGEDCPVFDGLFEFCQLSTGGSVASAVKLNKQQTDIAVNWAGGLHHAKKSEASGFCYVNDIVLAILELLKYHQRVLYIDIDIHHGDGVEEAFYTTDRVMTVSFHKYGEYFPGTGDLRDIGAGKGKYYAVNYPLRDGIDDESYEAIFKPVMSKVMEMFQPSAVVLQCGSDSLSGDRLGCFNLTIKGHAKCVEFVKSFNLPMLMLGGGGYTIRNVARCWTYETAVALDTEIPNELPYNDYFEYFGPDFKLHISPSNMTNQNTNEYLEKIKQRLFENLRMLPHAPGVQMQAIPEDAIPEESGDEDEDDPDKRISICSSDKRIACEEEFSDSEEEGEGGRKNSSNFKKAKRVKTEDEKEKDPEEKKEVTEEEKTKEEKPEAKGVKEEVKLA

| Compound | IC50 (human HDAC1) [µM] | EC50 [1] [µM] |
| --- | --- | --- |
| CNC(=O)CCCCC[C@H](NC(=O)c1cnn(C(C)C)c1)c1ncc(-c2ccc3ccncc3c2)[nH]1 [Entry 90, (S)-1-isopropyl-N-(1-(5-(isoquinolin-7-yl)-1H-imidazol-2-yl)-7-(methylamino)-7-oxoheptyl)-1H-pyrazole-4-carboxamide] | < 1 | < 1 |
| CNC(=O)CCCCC[C@H](NC(=O)C1CCC1(F)F)c1ncc(-c2ccc(-c3ccn(C)n3)cc2)[nH]1 (stereo partly drawn) [Entry 91, 2,2-difluoro-N-((S)-1-(5-(4-(1-methyl-1H-pyrazol-3-yl)phenyl)-1H-imidazol-2-yl)-7-(methylamino)-7-oxo-heptyl)cyclobutane-carboxamide] | > 5 | > 5 |
| CNC(=O)CCCCC[C@H](NC(=O)CC1=CSC2=NCCCN12)c1ncc(-c2ccc(-c3ccn(C)n3)cc2)[nH]1 [Entry 92, (S)-7-(2-(6,7-dihydro-5H-thiazolo[3,2-a]pyrimidin-3-yl)acetamido)-N-methyl-7-(5-(4-(1-methyl-1H-pyrazol-3-yl)phenyl)-1H-imidazol-2-yl)heptanamide] | 1 to 5 | > 5 |
| CNC(=O)CCCCC[C@H](NC(=O)OCc1ccccc1)c1ncc(-c2ccc3ccncc3c2)[nH]1 [Entry 93, (S)-benzyl (1-(5-(isoquinolin-7-yl)-1H-imidazol-2-yl)-7-(methylamino)-7-oxoheptyl)carbamate] | < 1 | < 1 |
| CCc1nc2ccccc2n1CCC(=O)N[C@@H](CCCCCC(=O)NC)c1nnc(-c2ccc3ccccc3c2)o1 [Entry 94, (S)-7-(3-(2-ethyl-1H-benzo[d]imidazol-1-yl)propanamido)-N-methyl-7-(5-(naphthalen-2-yl)-1,3,4-oxadiazol-2-yl)heptanamide] | 1 to 5 | 1 to 5 |
| CNC(=O)CCCCC[C@H](NC(=O)c1cncs1)c1ncc(-c2ccc3ccccc3c2)[nH]1 [Entry 95, (S)-N-(7-(methylamino)-1-(5-(naphthalen-2-yl)-1H-imidazol-2-yl)-7-oxo-heptyl)thiazole-5-carboxamide] | < 1 | < 1 |
| CNC(=O)CCCCC[C@H](NC(=O)c1cncs1)c1ncc(-c2cc3ccccc3cc2OC)[nH]1 [Entry 97, (S)-N-(1-(5-(3-methoxynaphthalen-2-yl)-1H-imidazol-2-yl)-7-(methylamino)-7-oxoheptyl)thiazole-5-carboxamide] | < 1 | < 1 |
| CNC(=O)CCCCC[C@H](NC(=O)C1CN(C)C1)c1ncc(-c2cc3ccccc3nc2OC)[nH]1 [Entry 98, (S)-N-(1-(5-(2-methoxyquinolin-3-yl)-1H-imidazol-2-yl)-7-(methylamino)-7-oxoheptyl)-1-methylazetidine-3-carboxamide] | 1 to 5 | 1 to 5 |
| CNC(=O)CCCCC[C@H](NC(=O)CCN1CCCCC1)c1ncc(-c2cc3ccccc3nc2OC)[nH]1 [Entry 99] | < 1 | 1 to 5 |
| CNC(=O)CCCCC[C@H](NC(=O)C12CC3CC(CC(C3)C1)C2)c1ncc(-c2ccc(C(F)(F)F)cc2)[nH]1 [Entry 100] | > 5 | 1 to 5 |
| CNC(=O)CCCCC[C@H](NC(=O)CCN1CCCCC1)c1ncc(-c2ccc(C(F)(F)F)cc2)[nH]1 [Entry 101, (S)-N-methyl-7-(3-(piperidin-1-yl)propanamido)-7-(5-(4-(trifluoro-methyl)phenyl)-1H-imidazol-2-yl)heptanamide] | > 5 | 1 to 5 |
| CNC(=O)CCCCC[C@H](NC(=O)c1nc[nH]n1)c1ncc(-c2cc3ccccc3nc2OC)[nH]1 [Entry 102, (S)-N-(1-(5-(2-methoxyquinolin-3-yl)-1H-imidazol-2-yl)-7-(methylamino)-7-oxoheptyl)-1H-1,2,4-triazole-3-carboxamide] | > 5 | > 5 |
| CNC(=O)CCCCC[C@H](NC(=O)C(C)n1cccn1)c1ncc(-c2cc3ccccc3nc2OC)[nH]1 (stereo partly drawn) [Entry 103] | > 5 | 1 to 5 |
| CNC(=O)CCCCC[C@H](NC(=O)[C@@H]1CCCN1C)c1ncc(-c2cc3ccccc3nc2OC)[nH]1 [Entry 104, (S)-N-((S)-1-(5-(2-methoxyquinolin-3-yl)-1H-imidazol-2-yl)-7-(methylamino)-7-oxoheptyl)-1-methylpyrrolidine-2-carboxamide] | > 5 | > 5 |
| CNC(=O)CCCCC[C@H](NC(=O)c1cncs1)c1ncc(-c2ccc3cc(OC)ncc3c2)[nH]1 [Entry 105, (S)-N-(1-(5-(3-methoxyisoquinolin-7-yl)-1H-imidazol-2-yl)-7-(methylamino)-7-oxoheptyl)thiazole-5-carboxamide] | < 1 | < 1 |
| CNC(=O)CCCCC[C@H](NC(=O)Cc1ccccn1)c1ncc(-c2cc3ccccc3nc2OC)[nH]1 [Entry 106] | 1 to 5 | > 5 |
| CNC(=O)CCCCC[C@H](NC(=O)c1cncs1)c1ncc(-c2ccc3nc(OC)ccc3c2)[nH]1 [Entry 107, (S)-N-(1-(5-(2-methoxyquinolin-6-yl)-1H-imidazol-2-yl)-7-(methylamino)-7-oxoheptyl)thiazole-5-carboxamide] | < 1 | < 1 |
| CNC(=O)CCCCC[C@H](NC(=O)c1cncs1)c1ncc(-c2ccc(-c3ccccc3)cc2)[nH]1 [Entry 108, (S)-N-(1-(5-([1,1′-biphenyl]-4-yl)-1H-imidazol-2-yl)-7-(methylamino)-7-oxoheptyl)thiazole-5-carboxamide] | > 5 | > 5 |
| CNC(=O)CCCCC[C@H](NC(=O)c1cncs1)c1ncc(-c2ccc(-c3cccs3)cc2)[nH]1 [Entry 109, (S)-N-(7-(methylamino)-7-oxo-1-(5-(4-(thiophen-2-yl)phenyl)-1H-imidazol-2-yl)heptyl)thiazole-5-carboxamide] | 1 to 5 | 1 to 5 |
| CNC(=O)CCCCC[C@H](NC(=O)Cc1cnc2ccccc2c1)c1ncc(-c2ccc(-n3cccn3)cc2)[nH]1 [Entry 110] | < 1 | 1 to 5 |

Other lines, results leading:

| IC50 (human HDAC1) [µM] | EC50 [1] [µM] | Compound |
| --- | --- | --- |
| 1 to 5 | > 5 | CNC(=O)CCCCC[C@H](NC(=O)C1(F)CCN(C)CC1)c1ncc(-c2ccc3ccncc3c2)[nH]1 [Entry 111, (S)-4-fluoro-N-(1-(5-(isoquinolin-7-yl)-1H-imidazol-2-yl)-7-(methylamino)-7-oxoheptyl)-1-methylpiperidine-4-carboxamide] |
| > 5 | > 5 | CNC(=O)CCCCC[C@H](NC(=O)c1cncs1)c1ncc(-c2ccc3[nH]nnc3c2)[nH]1 [Entry 112, (S)-N-(1-(5-(1H-benzo[d][1,2,3]triazol-5-yl)-1H-imidazol-2-yl)-7-(methylamino)-7-oxoheptyl)thiazole-5-carboxamide] |
| 1 to 5 | 1 to 5 | CNC(=O)CCCCC[C@H](NC(=O)Cc1cnccn1)c1ncc(-c2ccc3ccccc3c2)[nH]1 [Entry 113] |
| 1 to 5 | 1 to 5 | CNC(=O)CCCCC[C@H](NC(=O)c1ccc2cnccc2c1)c1ncc(-c2ccc3ccccc3c2)[nH]1 [Entry 114, (S)-N-(7-(methylamino)-1-(5-(naphthalen-2-yl)-1H-imidazol-2-yl)-7-oxo-heptyl)isoquinoline-6-carboxamide] |
| 1 to 5 | 1 to 5 | CNC(=O)CCCCC[C@H](NC(=O)Cc1n[nH]c(=O)[nH]1)c1ncc(-c2ccc3ccccc3c2)[nH]1 [Entry 115] |
| 1 to 5 | 1 to 5 | CNC(=O)CCCCC[C@H](NC(=O)Cn1cnnc1)c1ncc(-c2ccc3ccccc3c2)[nH]1 [Entry 116, (S)-7-(2-(4H-1,2,4-triazol-4-yl)acetamido)-N-methyl-7-(5-(naphthalen-2-yl)-1H-imidazol-2-yl)heptanamide] |
| 1 to 5 | 1 to 5 | CNC(=O)CCCCC[C@H](NC(=O)c1ccc(-n2cnnn2)cc1)c1ncc(-c2ccc3ccccc3c2)[nH]1 [Entry 117, (S)-N-(7-(methylamino)-1-(5-(naphthalen-2-yl)-1H-imidazol-2-yl)-7-oxoheptyl)-4-(1H-tetrazol-1-yl)benzamide] |
| 1 to 5 | 1 to 5 | CNC(=O)CCCCC[C@H](NC(=O)C1CCN(C)CC1)c1ncc(-c2ccc3ccncc3c2)[nH]1 [Entry 118, (S)-N-(1-(5-(isoquinolin-7-yl)-1H-imidazol-2-yl)-7-(methylamino)-7-oxoheptyl)-1-methylpiperidine-4-carboxamide] |
| 1 to 5 | 1 to 5 | CNC(=O)CCCCC[C@H](NC(=O)Cn1ccc(C)n1)c1ncc(-c2ccc3ccncc3c2)[nH]1 [Entry 119] |
| 1 to 5 | 1 to 5 | CNC(=O)CCCCC[C@H](NC(=O)c1cncs1)c1ncc(-c2ccc(-c3ncccn3)cc2)[nH]1 [Entry 120, (S)-N-(7-(methylamino)-7-oxo-1-(5-(4-(pyrimidin-2-yl)phenyl)-1H-imidazol-2-yl)heptyl)thiazole-5-carboxamide] |
| > 5 | > 5 | CNC(=O)CCCCC[C@H](NC(=O)C1(C)CCCO1)c1ncc(-c2ccc3ccncc3c2)[nH]1 (stereo partly drawn) [Entry 121, N-((S)-1-(5-(isoquinolin-7-yl)-1H-imidazol-2-yl)-7-(methylamino)-7-oxoheptyl)-2-methyltetrahydrofuran-2-carboxamide] |
| < 1 | < 1 | CNC(=O)CCCCC[C@H](NC(=O)CCc1c(C)nc2ncnn2c1C)c1ncc(-c2ccc3ccncc3c2)[nH]1 [Entry 122] |
| > 5 | > 5 | CNC(=O)CCCCC[C@H](NC(=O)C1(C)CCCO1)c1ncc(-c2ccc(-c3ccn(C)n3)cc2)[nH]1 (stereo partly drawn) [Entry 123, 2-methyl-N-((S)-1-(5-(4-(1-methyl-1H-pyrazol-3-yl)phenyl)-1H-imidazol-2-yl)-7-(methylamino)-7-oxoheptyl)tetra-hydrofuran-2-carboxamide] |
